Test results reported in US12655106B2 (Eikonizo Therapeutics, Inc., priority 2021, dated 2026).

Key:
[1] = molecular target: T1, Full length Human HDAC6 (Homo sapiens, UniProt Q9UBN7); assay: Caliper endpoint assay for HDAC enzymatic activity (HDAC6); type: biochemical; conditions: for IC50: in vitro enzymatic, Caliper endpoint assay, 30 min pre-incubation, 1 μM substrate peptide; for Selectivity (6 v 8): ratio of HDAC8 IC50/HDAC6 IC50
T1 construct: Full length Human HDAC6; FLAG (C); host or cells: baculovirus expression system
T1 sequence (Q9UBN7 1-1215): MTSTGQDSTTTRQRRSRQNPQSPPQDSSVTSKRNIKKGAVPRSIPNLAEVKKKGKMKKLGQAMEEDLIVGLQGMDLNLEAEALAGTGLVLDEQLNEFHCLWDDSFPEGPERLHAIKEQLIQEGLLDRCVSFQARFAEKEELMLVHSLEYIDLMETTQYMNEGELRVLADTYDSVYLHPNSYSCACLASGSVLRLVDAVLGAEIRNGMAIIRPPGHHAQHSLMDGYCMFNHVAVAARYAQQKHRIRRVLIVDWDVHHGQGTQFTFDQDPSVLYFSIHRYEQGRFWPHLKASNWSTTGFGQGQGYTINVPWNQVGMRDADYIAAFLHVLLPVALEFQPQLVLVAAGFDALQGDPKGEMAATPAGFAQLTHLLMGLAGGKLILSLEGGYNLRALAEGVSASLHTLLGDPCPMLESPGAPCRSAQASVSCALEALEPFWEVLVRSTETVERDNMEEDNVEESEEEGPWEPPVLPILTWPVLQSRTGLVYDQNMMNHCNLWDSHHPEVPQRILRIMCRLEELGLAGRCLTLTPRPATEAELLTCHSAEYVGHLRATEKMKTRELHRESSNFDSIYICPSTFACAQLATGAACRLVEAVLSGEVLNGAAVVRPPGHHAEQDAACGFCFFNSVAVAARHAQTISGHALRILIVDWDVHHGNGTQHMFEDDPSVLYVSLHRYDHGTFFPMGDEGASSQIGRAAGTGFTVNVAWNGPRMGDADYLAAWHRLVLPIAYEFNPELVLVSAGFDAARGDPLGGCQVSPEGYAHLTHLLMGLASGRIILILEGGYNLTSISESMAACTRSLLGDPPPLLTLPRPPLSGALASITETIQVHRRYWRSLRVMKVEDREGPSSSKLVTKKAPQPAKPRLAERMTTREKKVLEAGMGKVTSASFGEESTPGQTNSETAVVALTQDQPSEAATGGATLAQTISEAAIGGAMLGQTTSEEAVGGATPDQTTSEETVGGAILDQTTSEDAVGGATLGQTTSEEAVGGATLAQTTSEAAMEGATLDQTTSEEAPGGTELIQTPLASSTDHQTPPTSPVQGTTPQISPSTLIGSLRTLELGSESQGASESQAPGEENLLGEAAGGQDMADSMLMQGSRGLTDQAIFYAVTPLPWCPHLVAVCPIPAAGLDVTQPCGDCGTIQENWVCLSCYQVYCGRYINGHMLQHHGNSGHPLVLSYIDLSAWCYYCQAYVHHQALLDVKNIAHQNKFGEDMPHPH

[2] = molecular target: T2, Full length Human HDAC8 (Homo sapiens, UniProt Q9BY41); assay: Caliper endpoint assay for HDAC enzymatic activity (HDAC8); type: biochemical; conditions: in vitro enzymatic, 30 min pre-incubation, 1 μM substrate peptide
T2 construct: Full length Human HDAC8; HIS (N); host or cells: baculovirus expression system
T2 sequence (Q9BY41 1-377): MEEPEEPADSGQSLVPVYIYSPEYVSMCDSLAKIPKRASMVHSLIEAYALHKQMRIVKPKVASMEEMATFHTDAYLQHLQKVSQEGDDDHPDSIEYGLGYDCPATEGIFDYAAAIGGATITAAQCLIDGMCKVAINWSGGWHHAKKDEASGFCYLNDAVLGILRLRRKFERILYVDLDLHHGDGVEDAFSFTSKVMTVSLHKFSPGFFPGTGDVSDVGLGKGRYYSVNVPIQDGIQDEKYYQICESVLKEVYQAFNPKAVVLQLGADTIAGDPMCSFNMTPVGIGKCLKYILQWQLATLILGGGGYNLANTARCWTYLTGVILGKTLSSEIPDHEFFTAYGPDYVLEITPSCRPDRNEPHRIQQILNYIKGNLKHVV

Row | Compound | IC50 [1] [nM] | Selectivity (6 v 8) [1] | IC50 [2] [nM]
1 | O=C(NO)c1ccc2c(c1)C[C@H]1COCCN1C2 [Compound 132] | 1 to 100 | IV (IV: >100-1000) | 1000 to 10000
2 | CC[C@H]1Cc2c(F)cc(C(=O)NO)cc2CN1C[C@@]12C[C@@H](CO1)N(C)C2 (single isomer, unassigned) [Compound 553] | 1 to 100 | IV (IV: >100-1000) | 10000 to 100000
3 | O=C(NO)c1cc(F)c2c(c1)CCN(CC1C3CC1CN(C1CC1)C3)C2 (stereo not shown) [Compound 494, 2-[(3-cyclopropyl-3-azabicyclo[3.1.1]heptan-6-yl)methyl]-8-fluoro-3,4-dihydro-1H-isoquinoline-6-carbohydroxamic acid] | 1 to 100 | III (III: >10-100) | 1000 to 10000
4 | CC[C@H]1Cc2c(F)cc(C(=O)NO)cc2CN1CC1CC2CCC(C1)N2C (single isomer, unassigned) [Compound 570] | 1 to 100 | V (V: >1000) | 10000 to 100000
5 | CC[C@@H]1Cc2c(F)cc(C(=O)NO)cc2CN1C1CC2(CCN(C(C)=O)CC2)C1 (single isomer, unassigned) [Compound 602] | 100 to 1000 | III (III: >10-100) | 10000 to 100000
6 | O=C(NO)c1ccc2c(c1)CN1CCCC[C@H]1C2 [Compound 144] | 100 to 1000 | III (III: >10-100) | 10000 to 100000
7 | CC[C@H](c1ccccc1)N1CCc2cc(C(=O)NO)cc(F)c2C1 [Compound 30] | 1 to 100 | – | 1000 to 10000
8 | CC(=O)N1CC2(C[C@H](N3CCc4cc(C(=O)NO)cc(F)c4C3)CCO2)C1 (single isomer, unassigned) [Compound 453] | 1 to 100 | IV (IV: >100-1000) | 10000 to 100000
9 | CC[C@@H]1Cc2c(F)cc(C(=O)NO)cc2CN1C1CC2(C1)CN(C)C2 (single isomer, unassigned) [Compound 584] | 100 to 1000 | IV (IV: >100-1000) | 10000 to 100000
10 | O=C(NO)c1cc(F)c2c(c1)CCN(C[C@@]13CN[C@@H](CO1)C3)C2 [Compound 472, 8-fluoro-2-[[(1R,4R)-2-oxa-5-azabicyclo[2.2.1]heptan-1-yl]methyl]-3,4-dihydro-1H-isoquinoline-6-carbohydroxamic acid] | 1 to 100 | IV (IV: >100-1000) | 1000 to 10000
11 | O=C(NO)c1cc(F)c2c(c1)CCN(C1CCC3(CCCCC3)CC1)C2 [Compound 182, 8-fluoro-2-spiro[5.5]undecan-3-yl-3,4-dihydro-1H-isoquinoline-6-carbohydroxamic acid] | 1 to 100 | IV (IV: >100-1000) | 10000 to 100000
12 | CC1(C)C[C@H]2Cc3c(F)cc(C(=O)NO)cc3CN2C1 [Compound 128] | 100 to 1000 | III (III: >10-100) | 1000 to 10000
13 | C[C@H]1C[C@@H]2c3c(F)cc(C(=O)NO)cc3CCN2C1 (single isomer, unassigned) [Compound 153] | 100 to 1000 | – | 1000 to 10000
14 | CN1CCC2(CCC(N3CCc4cc(C(=O)NO)cc(F)c4C3)C2)CC1 (stereo not shown) [Compound 417, 8-fluoro-N-hydroxy-2-(8-methyl-8-azaspiro[4.5]decan-2-yl)-1,2,3,4-tetrahydroisoquinoline-6-carboxamide] | 1 to 100 | IV (IV: >100-1000) | 10000 to 100000
15 | O=C(NO)c1cc(F)c2c(c1)CCN([C@H]1C[C@@]3(CCCNC3)C1)C2 (single isomer, unassigned) [Compound 342, 8-fluoro-N-hydroxy-2-((2s,4r)-6-azaspiro[3.5]nonan-2-yl)-1,2,3,4-tetrahydroisoquinoline-6-carboxamide] | 1 to 100 | IV (IV: >100-1000) | 1000 to 10000
16 | CC[C@H]1Cc2c(F)cc(C(=O)NO)cc2CN1C1CC(C)(C)C1 (single isomer, unassigned) [Compound 593] | 100 to 1000 | IV (IV: >100-1000) | 10000 to 100000
17 | CN1CC[C@@]2(CC[C@H](N3CCc4cc(C(=O)NO)cc(F)c4C3)C2)C1 (single isomer, unassigned) [Compound 405] | 1 to 100 | V (V: >1000) | > 100000
18 | CC[C@H]1Cc2c(F)cc(C(=O)NO)cc2CN1C[C@@H]1CCCCO1 (single isomer, unassigned) [Compound 229] | 100 to 1000 | III (III: >10-100) | 1000 to 10000

Second part, the molecule after the results:

Row | IC50 [1] [nM] | Selectivity (6 v 8) [1] | IC50 [2] [nM] | Compound
19 | 10000 to 100000 | I (I: 0.1-1) | 1000 to 10000 | CC(C)N1CC2(CCCCC2)CC[C@H]1Cc1cc(F)cc(C(=O)NO)c1 (single isomer, unassigned) [Compound 274]
20 | 1 to 100 | IV (IV: >100-1000) | 10000 to 100000 | CC[C@@H]1Cc2c(F)cc(C(=O)NO)cc2CN1CC1COC1 (single isomer, unassigned) [Compound 217]
21 | 1 to 100 | V (V: >1000) | > 100000 | CC[C@@H]1Cc2c(F)cc(C(=O)NO)cc2CN1C1CC2(CCN(C)CC2)C1 (single isomer, unassigned) [Compound 594]
22 | 1 to 100 | IV (IV: >100-1000) | 1000 to 10000 | O=C(NO)c1cc(F)c2c(c1)CCN([C@H]1CCNC3(CCC3)C1)C2 (single isomer, unassigned) [Compound 435]
23 | > 100000 | V (V: >1000) | 10000 to 100000 | Cc1cc2c(cc1C(=O)NO)CCN(C1CC3(CCCCC3)C1)C2
24 | 1 to 100 | IV (IV: >100-1000) | 10000 to 100000 | CN1CC[C@@]2(CC[C@H]2N2CCc3cc(C(=O)NO)cc(F)c3C2)C1 (single isomer, unassigned) [Compound 331]
25 | 1 to 100 | III (III: >10-100) | 1000 to 10000 | CC[C@@H]1Cc2c(F)cc(C(=O)NO)cc2CN1C[C@@H]1CCCCO1 (single isomer, unassigned) [Compound 228]
26 | 1 to 100 | IV (IV: >100-1000) | 10000 to 100000 | O=C(NO)c1cc(F)c2c(c1)CCN([C@H]1CCOC3(CCC3)C1)C2 (single isomer, unassigned) [Compound 445]
27 | 1 to 100 | III (III: >10-100) | 1000 to 10000 | CC[C@@H]1Cc2c(F)cc(C(=O)NO)cc2CN1CC1CCC2(CCC2)CC1 (single isomer, unassigned) [Compound 527]
28 | 100 to 1000 | III (III: >10-100) | 10000 to 100000 | CC[C@@H]1Cc2c(F)cc(C(=O)NO)cc2CN1CC1C2CC1CN(C)C2 (single isomer, unassigned) [Compound 530]
29 | 1 to 100 | IV (IV: >100-1000) | 10000 to 100000 | O=C(NO)c1cc(F)c2c(c1)CCN(C[C@H]1CCCCO1)C2 (single isomer, unassigned) [Compound 175]
30 | 1 to 100 | V (V: >1000) | 10000 to 100000 | O=C(NO)c1cc(F)c2c(c1)CCN(C1CCOC3(CCC3)C1)C2 (single isomer, unassigned) [Compound 446]
31 | 100 to 1000 | III (III: >10-100) | 10000 to 100000 | CC[C@H]1Cc2c(F)cc(C(=O)NO)cc2CN1C1CCCCC1 (single isomer, unassigned) [Compound 583]
